Tests used:
[1] = tested on: p-ERK in AGS cells; experiment: p-ERK assay in AGS cells (fixed cells, anti-p-ERK / β-Actin antibodies, IR imaging); type: cell-based; settings: Homo sapiens, 3 h at 37° C., p-ERK detected by antibody with β-Actin, IR fluorescence
Experimental: The expression of p-ERK was detected in this assay. At first, the AGS cells (40000 cells/well) were seeded in 96-well plate culture overnight and treated with KRAS-G12D compounds inhibitors at concentrations of 1, 0.33, 0.11, 0.03, 0.01, 0.004, 0.001, 0.0004, 0.0001 μM for 3 h at 37° C. Then, add an equal volume (100 μL) of 8% paraformaldehyde solution to fix and crosslink the cells to the microplate for 15 minutes. Add 100 μL of 1× permeabilization solution to wells for 30 min and add 100 μL of 1× blocking solution for 2 h. Wash with PBS 3 times after each reaction. At last, Incubation with primary antibody (Anti-mouse β-Actin and Anti-rabbit p-ERK) and secondary antibody (Goat anti-Mouse IgG H&L IRDye 800CW and Goat anti-Rabbit IgG H&L IRDye 680RW) for 2 h, As appropriate, image the microplate with an IR scanner or develop the HRP labeled microplate and read it with a spectrophotometer. The fluorescence signal was monitored using a microplate reader (Azure biosystems, Sapphire biomolecular imager) using excitation and emission wavelengths of 680 and 800 nm, respectively. Export data. The inhibitor dose-reponse curves were analyzed using normalized IC50 regression curve fitting with control based normalization.

[2] = tested on: GP2d cells; experiment: Cellular proliferation assay in GP2d cells (CellTiterGlo luminescent cell viability assay); type: cell-based; settings: 72 hours treatment, CellTiter-Glo
Experimental: Example 32: Cellular Proliferation Assay in GP2d Cells
The inhibitory effect of test compounds on cellular proliferation was determined using CellTiterGlo® luminescent cell viability assay (Promega) following manufacturer's instruction.
GP2d cells (ECACC #95090715) were cultured in DMEM medium supplemented with 10% fetal bovine serum, 10 U/ml penicillin and 10 ug/ml streptomycin. Cells were plated in 96-well plates at a density of 2000 cells/well and allowed attach for […]. Then the cells were treated with various concentrations of test compounds for 72 hours. CellTiter-Glo® Reagent was added to wells and incubated for 10 minutes at room temperature. The plates were read on GloMax® 96 Microplate Luminometer or compatible microplate readers. The percentage of cellular viability was calculated as: […]

Fc1c(-c2cccc3ccc4c(c23)CCO4)ncc2c(N3C[C@H]4CC[C@@H](C3)N4)nc(OC[C@@]34CCCN3C[C@H](F)C4)nc12 [Example 3, 4-((1R,5S)-3,8-diazabicyclo[3.2.1]octan-3-yl)-7-(1,2-dihydronaphtho[2,1-b]furan-9-yl)-8-fluoro-2-(((2R,7aS)-2-fluorotetrahydro-1H-pyrrolizin-7a(5H)-yl)methoxy)pyrido[4,3-d]pyrimidine]
IC50 [1]: 8800 nM | IC50 [2]: 8800 nM

Fc1c(-c2cccc3ccc4occc4c23)ncc2c(N3C[C@H]4CC[C@@H](C3)N4)nc(OC[C@@]34CCCN3C[C@H](F)C4)nc12 [Example 4, 4-((1R,5S)-3,8-diazabicyclo[3.2.1]octan-3-yl)-8-fluoro-2-(((2R,7aS)-2-fluorotetrahydro-1H-pyrrolizin-7a(5H)-yl)methoxy)-7-(naphtho[2,1-b]furan-9-yl)pyrido[4,3-d]pyrimidine]
IC50 [1]: 4900 nM | IC50 [2]: 4750 nM

Oc1cc(-c2ncc3c(N4C[C@H]5CC[C@@H](C4)N5)nc(OC[C@@]45CCCN4C[C@H](F)C5)nc3c2F)c2c(ccc3occc32)c1 [Example 5, 9-(4-((1R,5S)-3,8-diazabicyclo[3.2.1]octan-3-yl)-8-fluoro-2-(((2R,7aS)-2-fluorotetrahydro-1H-pyrrolizin-7a(5H)-yl)methoxy)pyrido[4,3-d]pyrimidin-7-yl)naphtho[2,1-b]furan-7-ol]
IC50 [1]: 37 nM | IC50 [2]: 2860 nM

Oc1cc(-c2ncc3c(N4C[C@H]5CC[C@@H](C4)N5)nc(OC[C@@]45CCCN4C[C@H](F)C5)nc3c2F)c2c3c(ccc2c1)OCC3 [Example 6, 9-(4-((1R,5S)-3,8-diazabicyclo[3.2.1]octan-3-yl)-8-fluoro-2-(((2R,7aS)-2-fluorotetrahydro-1H-pyrrolizin-7a(5H)-yl)methoxy)pyrido[4,3-d]pyrimidin-7-yl)-1,2-dihydronaphtho[2,1-b]furan-7-ol]
IC50 [1]: 588 nM | IC50 [2]: 9290 nM

Oc1cc(-c2ncc3c(N4CC5CCC4CN5)nc(OC[C@@]45CCCN4C[C@H](F)C5)nc3c2F)c2c3c(ccc2c1)CCC3 (stereo partly drawn) [Example 7, 9-(4-(2,5-diazabicyclo[2.2.2]octan-2-yl)-8-fluoro-2-(((2R,7aS)-2-fluorotetrahydro-1H-pyrrolizin-7a(5H)-yl)methoxy)pyrido[4,3-d]pyrimidin-7-yl)-2,3-dihydro-1H-cyclopenta[a]naphthalen-7-ol]
IC50 [1]: 149 nM | IC50 [2]: 920 nM

CN(C)CC1(COc2nc(N3C[C@H]4CC[C@@H](C3)N4)c3cnc(-c4cc(O)cc5ccc6c(c45)CCC6)c(F)c3n2)CC1 [Example 8, 9-(4-((1R,5S)-3,8-diazabicyclo[3.2.1]octan-3-yl)-2-((1-((dimethylamino)methyl)cyclopropyl)methoxy)-8-fluoropyrido[4,3-d]pyrimidin-7-yl)-2,3-dihydro-1H-cyclopenta[a]naphthalen-7-ol]
IC50 [1]: 41 nM | IC50 [2]: 284 nM

Oc1cc(-c2ncc3c(N4C[C@H]5CC[C@@H](C4)N5)nc(OCC4(CN5CCOCC5)CC4)nc3c2F)c2c3c(ccc2c1)CCC3 [Example 9, 9-(4-((1R,5S)-3,8-diazabicyclo[3.2.1]octan-3-yl)-8-fluoro-2-((1-(morpholinomethyl)cyclopropyl)methoxy)pyrido[4,3-d]pyrimidin-7-yl)-2,3-dihydro-1H-cyclopenta[a]naphthalen-7-ol]
IC50 [1]: 31 nM | IC50 [2]: 175 nM

Oc1cc(-c2ncc3c(N4C[C@H]5CC[C@@H](C4)N5)nc(OCCCN4C5CCC4COC5)nc3c2F)c2c3c(ccc2c1)CCC3 [Example 10, 9-(2-(3-(3-oxa-8-azabicyclo[3.2.1]octan-8-yl)propoxy)-4-((1R,5S)-3,8-diazabicyclo[3.2.1]octan-3-yl)-8-fluoropyrido[4,3-d]pyrimidin-7-yl)-2,3-dihydro-1H-cyclopenta[a]naphthalen-7-ol]
IC50 [1]: 205 nM | IC50 [2]: 261 nM

C[C@@H]1COCCN1CC1(COc2nc(N3C[C@H]4CC[C@@H](C3)N4)c3cnc(-c4cc(O)cc5ccc6c(c45)CCC6)c(F)c3n2)CC1 [Example 11, 9-(4-((1R,5S)-3,8-diazabicyclo[3.2.1]octan-3-yl)-8-fluoro-2-((1-(((R)-3-methylmorpholino)methyl)cyclopropyl)methoxy)pyrido[4,3-d]pyrimidin-7-yl)-2,3-dihydro-1H-cyclopenta[a]naphthalen-7-ol]
IC50 [1]: 135 nM | IC50 [2]: 169 nM

C[C@@H](COc1nc(N2C[C@H]3CC[C@@H](C2)N3)c2cnc(-c3cc(O)cc4ccc5c(c34)CCC5)c(F)c2n1)CN1C2CCC1COC2 [Example 12, 9-(2-((2R)-3-(3-oxa-8-azabicyclo[3.2.1]octan-8-yl)-2-methylpropoxy)-4-((1R,5S)-3,8-diazabicyclo[3.2.1]octan-3-yl)-8-fluoropyrido[4,3-d]pyrimidin-7-yl)-2,3-dihydro-1H-cyclopenta[a]naphthalen-7-ol]
IC50 [1]: 17 nM | IC50 [2]: 48.4 nM

CC1(O)CCCN(c2nc(OCC34CCCN3C[C@H](F)C4)nc3c(F)c(-c4cc(O)cc5ccc6c(c45)CCC6)ncc23)C1 (stereo partly drawn) [Example 13, 1-(8-fluoro-2-(((2R)-2-fluorotetrahydro-1H-pyrrolizin-7a(5H)-yl)methoxy)-7-(7-hydroxy-2,3-dihydro-1H-cyclopenta[a]naphthalen-9-yl)pyrido[4,3-d]pyrimidin-4-yl)-3-methylpiperidin-3-ol]
IC50 [1]: 22 nM | IC50 [2]: 10 nM

CC1CCc2ccc3cc(O)cc(-c4ncc5c(N6C[C@H]7CC[C@@H](C6)N7)nc(OC[C@@]67CCCN6C[C@H](F)C7)nc5c4F)c3c21 (stereo partly drawn) [Example 14, 9-(4-((1R,5S)-3,8-diazabicyclo[3.2.1]octan-3-yl)-8-fluoro-2-(((2R,7aS)-2-fluorotetrahydro-1H-pyrrolizin-7a(5H)-yl)methoxy)pyrido[4,3-d]pyrimidin-7-yl)-1-methyl-2,3-dihydro-1H-cyclopenta[a]naphthalen-7-ol]
IC50 [1]: 85 nM | IC50 [2]: 429 nM

Oc1cc(-c2ncc3c(N4C[C@H]5CC[C@@H](C4)N5)nc(OC[C@@]45CCCN4C[C@H](F)C5)nc3c2F)c2c(ccc3ccsc32)c1 [Example 15, 9-(4-((1R,5S)-3,8-diazabicyclo[3.2.1]octan-3-yl)-8-fluoro-2-(((2R,7aS)-2-fluorotetrahydro-1H-pyrrolizin-7a(5H)-yl)methoxy)pyrido[4,3-d]pyrimidin-7-yl)naphtho[1,2-b]thiophen-7-ol]
IC50 [1]: 159 nM | IC50 [2]: 541 nM

Oc1cc(-c2ncc3c(N4C[C@H]5CC[C@@H](C4)N5)nc(OC[C@@]45CCCN4C[C@H](F)C5)nc3c2F)c2c3c(ccc2c1)CCCC3 [Example 16, 4-(4-((1R,5S)-3,8-diazabicyclo[3.2.1]octan-3-yl)-8-fluoro-2-(((2R,7aS)-2-fluorotetrahydro-1H-pyrrolizin-7a(5H)-yl)methoxy)pyrido[4,3-d]pyrimidin-7-yl)-5,6,7,8-tetrahydrophenanthren-2-ol]
IC50 [1]: 5 nM | IC50 [2]: 849 nM

Oc1cc(-c2ncc3c(N4C[C@H]5CC[C@@H](C4)N5)nc(OC[C@@]45CCCN4C[C@H](F)C5)nc3c2F)c2c(c1)cc1n2CCC1 [Example 19, 5-(4-((1R,5S)-3,8-diazabicyclo[3.2.1]octan-3-yl)-8-fluoro-2-(((2R,7aS)-2-fluorotetrahydro-1H-pyrrolizin-7a(5H)-yl)methoxy)pyrido[4,3-d]pyrimidin-7-yl)-2,3-dihydro-1H-pyrrolo[1,2-a]indol-7-ol]
IC50 [2]: 3060 nM

Oc1cc(-c2ncc3c(N4C[C@H]5CC[C@@H](C4)N5)nc(OC[C@@]45CCCN4C[C@H](F)C5)nc3c2F)c2c(ccn3cccc23)c1 [Example 22, 10-(4-((1R,5S)-3,8-diazabicyclo[3.2.1]octan-3-yl)-8-fluoro-2-(((2R,7aS)-2-fluorotetrahydro-1H-pyrrolizin-7a(5H)-yl)methoxy)pyrido[4,3-d]pyrimidin-7-yl)pyrrolo[2,1-a]isoquinolin-8-ol]
IC50 [2]: 3340 nM

Oc1cc(-c2cc3nc(OC[C@@]45CCCN4C[C@H](F)C5)nc(N4C[C@H]5CC[C@@H](C4)N5)c3cn2)c2c3c(ccc2c1)CCC3 [Example 30, 9-(4-((1R,5S)-3,8-diazabicyclo[3.2.1]octan-3-yl)-2-(((2R,7aS)-2-fluorotetrahydro-1H-pyrrolizin-7a(5H)-yl)methoxy)pyrido[4,3-d]pyrimidin-7-yl)-2,3-dihydro-1H-cyclopenta[a]naphthalen-7-ol]
IC50 [2]: 409 nM

Oc1cc(-c2c(Cl)cc3c(N4C[C@H]5CC[C@@H](C4)N5)nc(OC[C@@]45CCCN4C[C@H](F)C5)nc3c2F)c2c3c(ccc2c1)CCC3 [Example 31, 9-(4-((1R,5S)-3,8-diazabicyclo[3.2.1]octan-3-yl)-6-chloro-8-fluoro-2-(((2R,7aS)-2-fluorotetrahydro-1H-pyrrolizin-7a(5H)-yl)methoxy)quinazolin-7-yl)-2,3-dihydro-1H-cyclopenta[a]naphthalen-7-ol]
IC50 [2]: 737 nM
